Consider 23 compounds from PMC9965165, “3D-Printing of Capsule Devices as Compartmentalization Tools for Supported Reagents in the Search of Antiproliferative Isatins” (Pharmaceuticals, 2023).

Read-outs that look alike come from different tables or passages of the source.

Data set [1] concerns murine 3T3 Balb fibroblast cells. Briefly: CCK8 antiproliferation / cytotoxicity assay in 3T3 Balb fibroblasts. The class given is cell-based. Particulars: CCK-8 assay, murine fibroblast 3T3 Balb cells. The procedure:
(§1) The cytotoxic activity of these new synthesized isatin derivatives was evaluated by means of the CCK8 antiproliferation assay in vitro in two different cell lines: cancerous cervical HeLa and murine 3T3 Balb fibroblast cells. The latter cell line is typically used to analyze the potential toxicity of (nano)materials thanks to their sensitivity. […] It can be observed that fibroblast cells were more sensitive to the presence of isatin derivatives than the cancerous cells in general HeLa ones, probably related to the enhanced replication rate of the tumoral cells. Analysis of the experimental data shown in Figure 6 allowed the determination of IC50 values (see Table 3 and Table 4). […] [65, 66] Compounds 26 and 33 are, therefore, new promising hits for further development.
(§2) Cervical HeLa cancer cells and 3T3 mouse fibroblasts from Cell Biolabs (San Diego, CA, USA) were grown in standard culture conditions (5% CO2 at 37 °C) in DMEM supplemented with 10% (v/v) FBS, 2 mM L-glutamine, 1% (v/v) penicillin/streptomycin, 1 mM sodium pyruvate, and 0.1 mM MEM nonessential amino acids (NEAA).
(§3) Cytotoxicity of the synthesized isatin-based compounds was tested in vitro by means of the CCK-8 cytotoxicity assay. Cancerous cervical HeLa and 3T3 Balb fibroblasts cells were seeded into 96-well plates (1.0 × 10^4 cells/well) and grown for 24 h at an optical confluence of 80–90% under standard culture conditions in 100 μL growth medium. Bare cells were used as the negative control. After 24 h of incubation at 37 °C, 100 μL of NPs at 2.5 × 10^10 NP/mL in the corresponding cell culture medium were injected into the wells and incubated for 24 h and 48 h. After incubation, the culture medium was discarded, cells were washed with 10 mM PBS (pH 7.4) several times, and fresh culture medium (100 μL) containing 10 μL of CCK-8 reagent added to each well. After 2 h, the absorption at 450 nm of cell samples was measured with an UV-vis microplate absorbance reader (Bio-Rad model 689, USA). Cell viability (SR, survival rate) was calculated as follows: SR=Abssample/Absblank×100 where Abssample is the absorbance at 450 nm for cell samples, and Absblank is the absorbance corresponding to the sample controls without the particles.
(§4) For the determination of the half-maximal inhibitory concentration (IC50), a dose–response curve between the isatin derivatives’ concentrations and percent cell viability was plotted and fitted by means of a nonlinear least-squares fitting method (Microcal Origin 2021) to a four-parameter logistic equation: Y=min+((max−min)/1+10^((logIC50−X)×p)) where the original, %control or %survival data are represented by Y along their minimal (min) and maximal (max) values; the isatin derivative concentration is represented by X; IC50 is the concentration at 50% maximal value; and p is the slope factor.
On the technique in general: Formazan colour is commonly taken as a measure of viable cells.

The subject of data set [2] is cancerous cervical HeLa cells. Put plainly: CCK8 antiproliferation / cytotoxicity assay in HeLa cells. Conditions: for IC50: CCK-8 assay, human cervical cancer HeLa cells; for specificity for tumoral cells: HeLa versus 3T3 Balb fibroblasts. The class given is cell-based, human. The procedure:
as §1, §2, §3, §4

Data set [3] deals with cervical tumors. Particulars: cited from earlier work.
Data set [4] deals with HBL-100 cell line. Further details: method as in doi:10.1002/ajoc.202100684. Particulars: HBL-100 line; cited from earlier work.
In data set [5] the test system is HeLa cell line. More on the design: method as in doi:10.1002/ajoc.202100684. Conditions: cited from earlier work.
Setting [6] is: drugs used for recurrent and metastatic cervical cancer.
[7] abbreviates: Pt-based chemodrug, first line treatment of primary cervical tumors.

For orientation: IC50 means the midpoint of a concentration-inhibition curve. As usually defined, the melting point is the temperature of the solid-liquid transition. `CCCCN(C(=O)C(F)(F)F)C1(C(=O)NC2CCCCC2)C(=O)Nc2ccc([N+](=O)[O-])cc21` (stereo not drawn) [Compound 21, 3-(N-butyl-2,2,2-trifluoroacetamido)-N-cyclohexyl-5-nitro-2-oxoindoline-3-carboxamide] displayed a melting point of 200 to 202 °C. This compound came in with a half-inhibitory concentration (IC50) in data set [1] (Mus musculus) of 17 ± 0.7 µM. In data set [2] (Homo sapiens, HeLa), this compound yielded an IC50 of 12.4 ± 0.7 µM.
The corresponding values for `COC(=O)/C=C/c1ccc2c(c1)C(=O)C(=O)N2Cc1ccc(I)cc1` [Compound 32, methyl (E)-3-(1-(4-iodobenzyl)-2,3-dioxoindolin-5-yl)acrylate] are 228 to 230 °C, 32.1 ± 3.4 µM and 10.8 ± 0.9 µM.
For the compound `CC(=O)O[C@H]1C(=O)[C@@]2(C)[C@H]([C@H](OC(=O)c3ccccc3)[C@]3(O)C[C@H](OC(=O)[C@H](O)[C@@H](NC(=O)c4ccccc4)c4ccccc4)C(C)=C1C3(C)C)[C@]1(OC(C)=O)CO[C@@H]1C[C@@H]2O` [paclitaxel], in data set [3] (setting [6]), the IC50 is 21 µM.
As for `CC[C@@]1(O)C(=O)OCc2c1cc1n(c2=O)Cc2cc3c(CN(C)C)c(O)ccc3nc2-1` [topotecan], in data set [3] (setting [6]), the IC50 was 26 µM.
Regarding `CCCCN(C(=O)CCl)C1(C(=O)NC(C)(C)C)C(=O)Nc2ccc(Br)cc21` (stereo not drawn) [Compound 16, 5-Bromo-N-(tert-butyl)-3-(N-butyl-2-chloroacetamido)-2-oxoindoline-3-carboxamide], the melting point is 180 to 182 °C. The compound further showed an IC50 in data set [1] (Mus musculus) of 1.5 ± 0.8 µM. The same compound came in with a 50% inhibitory concentration (IC50) in data set [2] (Homo sapiens, HeLa) of 17.9 ± 1.3 µM.
Turning to `N.N.[Cl][Pt][Cl]` [cisplatin], in data set [3] (setting [7]), the IC50 is 15 µM.
`O=C1C(=O)N(Cc2cn(Cc3ccccc3)nn2)c2ccc(I)cc21` [Compound 26]: the IC50 in data set [1] (Mus musculus) was 21.5 ± 2 µM; in data set [2] (Homo sapiens, HeLa) it was 2.5 ± 0.4 µM. Also, the “specificity for tumoral cells” value in data set [2] is “high specificity for tumoral cells”.
`CCCCN(C(=O)CCl)C1(C(=O)NC(C)(C)C)C(=O)Nc2ccc([N+](=O)[O-])cc21` (stereo not drawn) [Compound 13, N-(tert-butyl)-3-(N-butyl-2-chloroacetamido)-5-nitro-2-oxoindoline-3-carboxamide]: the melting point is 179.5 to 179.8 °C. For the same compound, the IC50 in data set [1] (Mus musculus) is 4.8 ± 0.9 µM. It took 26.9 ± 1 µM to reach half-maximal inhibition in data set [2] (Homo sapiens, HeLa) (IC50).
In the same order, the values of `CCCCN(C(=O)C(F)(F)F)C1(C(=O)NC2CCCCC2)C(=O)Nc2ccc(I)cc21` (stereo not drawn) [Compound 18, 3-(N-butyl-2,2,2-trifluoroacetamido)-N-cyclohexyl-5-iodo-2-oxoindoline-3-carboxamide] are 218 to 220 °C, 8.5 ± 0.7 µM and 6.8 ± 0.5 µM.
In the case of “N-(tert-butyl)-3-(N-butyl-2-chloroacetamido)-1-methyl-2-oxoindoline-3-carboxamide [Compound 11]”, the IC50 amounted to 7.3 ± 0.7 µM in data set [1] and 40.1 ± 1.5 µM in data set [2].
`CCCCN(C(=O)C(F)(F)F)C1(C(=O)NC(C)(C)C)C(=O)Nc2ccc(Br)cc21` (stereo not drawn) [Compound 19, 5-bromo-N-(tert-butyl)-3-(N-butyl-2,2,2-trifluoroacetamido)-2-oxoindoline-3-carboxamide] registered a melting point of 198 to 200 °C. For the same compound, in data set [1] (Mus musculus), 7.8 ± 0.4 µM corresponded to half-maximal inhibition (IC50). This compound also showed an IC50 in data set [2] (Homo sapiens, HeLa) of 16.8 ± 1.7 µM.
In the same order, the values of `CCCCN(C(=O)CCl)C1(C(=O)NC(C)(C)C)C(=O)Nc2c(Cl)cc(Cl)cc21` (stereo not drawn) [Compound 14, N-(tert-butyl)-3-(N-butyl-2-chloroacetamido)-5,7-dichloro-2-oxoindoline-3-carboxamide] are 125 to 126 °C, 1.5 ± 0.3 µM and 14.1 ± 0.3 µM.
As for `CCCCN(C(=O)CCl)C1(C(=O)NC(C)(C)C)C(=O)Nc2ccc(I)cc21` (stereo not drawn) [Compound 12, N-(tert-butyl)-3-(N-butyl-2-chloroacetamido)-5-iodo-2-oxoindoline-3-carboxamide], the melting point is 108.5 to 109.7 °C. The compound further returned a half-maximal inhibitory concentration (IC50) in data set [1] (Mus musculus) of 1.3 ± 0.2 µM. Besides, the “specificity for tumoral cells” value in data set [2] is “not showing fully specific toxic activity for cancerous cells”. Further, the midpoint of inhibition in data set [2] (Homo sapiens, HeLa), the IC50, lay at 8.3 ± 0.8 µM. The antiproliferative activity entry in data set [4] is listed as “potent antiproliferative activity”. For the same compound, the antiproliferative activity entry in data set [5] was “potent antiproliferative activity”.
Regarding `O=C1C(=O)N(Cc2cn(Cc3ccccc3)nn2)c2ccccc21` [Compound 25], the melting point fell in the range of 175 to 177 °C. The same compound displayed an IC50 in data set [1] (Mus musculus) of 100 ± 3.1 µM. Moreover, the IC50 in data set [2] (Homo sapiens, HeLa) was 13.9 ± 4.5 µM.
In the same order, the values of `CCCCN(C(=O)C(F)(F)F)C1(C(=O)NC(C)(C)C)C(=O)Nc2ccc([N+](=O)[O-])cc21` (stereo not drawn) [Compound 20, N-(tert-butyl)-3-(N-butyl-2,2,2-trifluoroacetamido)-5-nitro-2-oxoindoline-3-carboxamide] are 178 to 180 °C, 25 ± 1.9 µM and 26 ± 1.9 µM.
Consider `COC(=O)/C=C/c1ccc(CN2C(=O)C(=O)c3cc(/C=C/C(=O)OC)ccc32)cc1` [Compound 33, methyl (E)-3-(4-((5-((E)-3-methoxy-3-oxoprop-1-en-1-yl)-2,3-dioxoindolin-1-yl)methyl)phenyl)acrylate], for which the melting point was 188 to 190 °C. The same compound showed an IC50 in data set [1] (Mus musculus) of 12.6 ± 0.9 µM. Further, the “specificity for tumoral cells” value in data set [2] was “high specificity for tumoral cells”. In data set [2] (Homo sapiens, HeLa), the IC50 stood at 1 ± 0.05 µM.
Turning to `N.N.O=C([O-])C1(C(=O)[O-])CCC1.[Pt+2]` [carboplatin], in data set [3] (setting [7]), the IC50 is 1000 µM.
With `COC(=O)/C=C/c1ccc2c(c1)C(=O)C(=O)N2CCC(=O)OC` [Compound 30, methyl (E)-3-(1-(3-methoxy-3-oxopropyl)-2,3-dioxoindolin-5-yl)acrylate], the melting point is 131 to 132 °C. This compound also came in with an IC50 in data set [1] (Mus musculus) of 42.1 ± 2.7 µM. In data set [2], the “specificity for tumoral cells” value was “not showing fully specific toxic activity for cancerous cells”. For the same compound, the IC50 in data set [2] (Homo sapiens, HeLa) was 9.3 ± 0.8 µM.
Take `CCCCN(C(=O)C(F)(F)F)C1(C(=O)NC(C)(C)C)C(=O)Nc2ccc(I)cc21` (stereo not drawn) [Compound 17, N-(tert-butyl)-3-(N-butyl-2,2,2-trifluoroacetamido)-5-iodo-2-oxoindoline-3-carboxamide]: the melting point was in the range of 204 to 205 °C. This compound showed an IC50 in data set [1] (Mus musculus) of 7.2 ± 0.5 µM. Also, the IC50 in data set [2] (Homo sapiens, HeLa) was 33 ± 1.4 µM.
On to `CCOC(=O)Cn1cc(CN2C(=O)C(=O)c3cc(I)ccc32)nn1` [Compound 27], for which the melting point was in the range of 158 to 159 °C. In addition, the IC50 in data set [1] (Mus musculus) came to 7.3 ± 0.7 µM. Also, half-maximal inhibition in data set [2] (Homo sapiens, HeLa) (IC50) required 66.9 ± 8.9 µM.
In the same order, the values of `CCCCN(C(=O)C(F)(F)F)C1(C(=O)NC2CCCCC2)C(=O)Nc2ccc(Br)cc21` (stereo not drawn) [Compound 15, 5-bromo-3-(N-butyl-2,2,2-trifluoroacetamido)-N-cyclohexyl-2-oxoindoline-3-carboxamide] are 209 to 210 °C, 28.3 ± 1.7 µM and 47.7 ± 1.2 µM.
`CCCCN(C(=O)CCl)C1(C(=O)NC2CCCCC2)C(=O)Nc2ccc(Br)cc21` (stereo not drawn) [Compound 22, 5-bromo-3-(N-butyl-2-chloroacetamido)-N-cyclohexyl-2-oxoindoline-3-carboxamide] returned a melting point of 190.2 to 190.4 °C. The IC50 in data set [1] (Mus musculus) stood at 0.12 ± 0.01 µM. This compound registered an IC50 in data set [2] (Homo sapiens, HeLa) of 27 ± 0.8 µM.
`COC(=O)/C=C/c1ccc2c(c1)C(=O)C(=O)N2Cc1ccccc1` [Compound 31]: the IC50 in data set [1] (Mus musculus) came to 3.5 ± 0.8 µM; in data set [2], 8.8 ± 1.1 µM; in data set [2] (Homo sapiens, HeLa), 6.8 µM. Besides, the “specificity for tumoral cells” value in data set [2] was “not showing fully specific toxic activity for cancerous cells”.
